Source: patent US20250186405A1, “Compound For Use In Treating Narcolepsy” (Alkermes, Inc., priority 2023, published 2025)

Tested on: subjects with narcolepsy type-2 (NT2)
Assay: Part 5 POC NT2: treatment-emergent adverse events, single doses, crossover
Conditions: N = 9
Method: Part 5 consisted of a 4-way, 4-period crossover study design in approximately 8 subjects (2 subjects per sequence; minimum of 4 subjects with 1 subject per sequence). Subjects were randomized 1:1:1:1 to 1 of 4 sequences with 4 treatment periods (3 single doses of Compound A and 1 dose of matching placebo), with up to 48 hours of washout between treatments. Treatments were administered under fasted state.
Subjects were randomized to 1 of 4 sequences. […] In each period, subjects were administered a single dose of study drug (either Compound A or placebo) as per the randomization schedule with approximately 240 mL of noncarbonated water following overnight fasting. No food was given for at least 3 hours after dose administration (i.e., fast can be broken after the 3-hour PK time point is collected). Water was allowed ad libitum except for 1 hour before and 1 hour after study drug administration. Safety assessments including AEs, safety ECGs, vital signs, and clinical laboratory tests were conducted, and plasma PK samples were collected. Furthermore, BP and HR were monitored once every hour for 12 hours on the dosing days.
Adverse events (AEs) and serious adverse events (SAEs) were monitored continuously until the completion of the study.
Nine subjects with NT2 were dosed in Part 5 (POC in NT2) in a randomized 4-sequence 4-period cross-over design. Each dose of Compound A or matching placebo was separated by 2 days. A 14-day washout period preceded the treatment period and included discontinuation of narcolepsy medications. All 9 subjects underwent the washout period and received at least one dose of Compound A. All subjects completed all 4-way randomized crossover periods.

With CS(=O)(=O)N[C@H]1CCCN2C(=O)COc3ccccc3C3CCC(CC3)OCC12 (stereo partly drawn) [Compound A, N-[(4S,4aR,7α,10α)-1,2,3,4,4a,5,7,8,9,10,16,17-dodecahydro-17-oxo-7,10-ethanopyrido[1,2-d][1,7,4]benzodioxaazacyclotridecin-4-yl]methanesulfonamide] as the compound, how does the “AE Leading to Study Drug Discontinuation” value (5 mg single dose) read?
The value was 0 n (%).

What about the “Any SAEs” value (5 mg single dose) of the same compound?
The value was 0 n (%).

What about the “Any TEAE” value (5 mg single dose) of the same compound?
The value was 3 (33.3) n (%).

What about the Death (5 mg single dose) of the same compound?
Its Death is 0 n (%).

What about the “Drug Related TEAE by Preferred Term: Altered state of consciousness” value (5 mg single dose) of the same compound?
Its value is 0 n (%).

And the “Drug Related TEAE by Preferred Term: Dizziness” value (5 mg single dose)?
The value was 0 n (%).

And the “Drug Related TEAE by Preferred Term: Dizziness postural” value (5 mg single dose)?
Its value is 0 n (%).

And the “Drug Related TEAE by Preferred Term: Feeling jittery” value (5 mg single dose)?
Its value is 0 n (%).

What about the “Drug Related TEAE by Preferred Term: Headache” value (5 mg single dose) of the same compound?
Its value is 0 n (%).

And the “Drug Related TEAE by Preferred Term: Initial insomnia” value (5 mg single dose)?
Its value is 1 (11.1) n (%).

What about the “Drug Related TEAE by Preferred Term: Insomnia” value (5 mg single dose) of the same compound?
The value was 0 n (%).

What about the “Drug Related TEAE by Preferred Term: Photophobia” value (5 mg single dose) of the same compound?
The value was 0 n (%).

And the “Drug Related TEAE by Preferred Term: Pollakiuria” value (5 mg single dose)?
Its value is 0 n (%).

And the “Drug Related TEAE by Preferred Term: Tachycardia” value (5 mg single dose)?
Its value is 0 n (%).

And the “Drug Related TEAE by Preferred Term: Urinary incontinence” value (5 mg single dose)?
The value was 0 n (%).

What about the “Subjects with at least one TEAE” value (5 mg single dose) of the same compound?
The value was 3 (33.3) n (%).

What about the “Subjects with at least one treatment-related TEAE” value (5 mg single dose) of the same compound?
The value was 1 (11.1) n (%).

And the “TEAE by Highest Relationship: Not Related” value (5 mg single dose)?
Its value is 2 (22.2) n (%).

What about the “TEAE by Highest Relationship: Related” value (5 mg single dose) of the same compound?
Its value is 1 (11.1) n (%).

What about the “TEAE by Highest Severity: Mild” value (5 mg single dose) of the same compound?
Its value is 3 (33.3) n (%).

And the “TEAE by Highest Severity: Moderate” value (5 mg single dose)?
Its value is 0 n (%).

What about the “TEAE by Highest Severity: Severe” value (5 mg single dose) of the same compound?
Its value is 0 n (%).

What about the “TEAE by Preferred Term: Altered state of consciousness” value (5 mg single dose) of the same compound?
Its value is 0 n (%).

What about the “TEAE by Preferred Term: Constipation” value (5 mg single dose) of the same compound?
Its value is 0 n (%).

And the “TEAE by Preferred Term: Contusion” value (5 mg single dose)?
The value was 0 n (%).

And the “TEAE by Preferred Term: Dizziness” value (5 mg single dose)?
Its value is 0 n (%).

What about the “TEAE by Preferred Term: Dizziness postural” value (5 mg single dose) of the same compound?
Its value is 0 n (%).

And the “TEAE by Preferred Term: Dry skin” value (5 mg single dose)?
The value was 1 (11.1) n (%).

What about the “TEAE by Preferred Term: Feeling jittery” value (5 mg single dose) of the same compound?
Its value is 0 n (%).

What about the “TEAE by Preferred Term: Headache” value (5 mg single dose) of the same compound?
Its value is 0 n (%).

What about the “TEAE by Preferred Term: Initial insomnia” value (5 mg single dose) of the same compound?
The value was 1 (11.1) n (%).

What about the “TEAE by Preferred Term: Insomnia” value (5 mg single dose) of the same compound?
The value was 0 n (%).

What about the “TEAE by Preferred Term: Nasal dryness” value (5 mg single dose) of the same compound?
The value was 0 n (%).

What about the “TEAE by Preferred Term: Nausea” value (5 mg single dose) of the same compound?
The value was 0 n (%).

And the “TEAE by Preferred Term: Photophobia” value (5 mg single dose)?
Its value is 0 n (%).

And the “TEAE by Preferred Term: Pollakiuria” value (5 mg single dose)?
Its value is 0 n (%).

And the “TEAE by Preferred Term: Rash” value (5 mg single dose)?
Its value is 0 n (%).

What about the “TEAE by Preferred Term: Skin lesion” value (5 mg single dose) of the same compound?
The value was 1 (11.1) n (%).

What about the “TEAE by Preferred Term: Tachycardia” value (5 mg single dose) of the same compound?
The value was 0 n (%).

And the “TEAE by Preferred Term: Urinary incontinence” value (5 mg single dose)?
Its value is 0 n (%).

What about the “AE Leading to Study Drug Discontinuation” value (12 mg single dose) of the same compound?
The value was 0 n (%).

What about the “Any SAEs” value (12 mg single dose) of the same compound?
Its value is 0 n (%).

What about the “Any TEAE” value (12 mg single dose) of the same compound?
The value was 4 (44.4) n (%).

And the Death (12 mg single dose)?
Its Death is 0 n (%).

What about the “Drug Related TEAE by Preferred Term: Altered state of consciousness” value (12 mg single dose) of the same compound?
The value was 0 n (%).

What about the “Drug Related TEAE by Preferred Term: Dizziness” value (12 mg single dose) of the same compound?
The value was 0 n (%).

What about the “Drug Related TEAE by Preferred Term: Dizziness postural” value (12 mg single dose) of the same compound?
Its value is 0 n (%).

What about the “Drug Related TEAE by Preferred Term: Feeling jittery” value (12 mg single dose) of the same compound?
Its value is 0 n (%).

What about the “Drug Related TEAE by Preferred Term: Headache” value (12 mg single dose) of the same compound?
The value was 0 n (%).

And the “Drug Related TEAE by Preferred Term: Initial insomnia” value (12 mg single dose)?
The value was 0 n (%).

And the “Drug Related TEAE by Preferred Term: Insomnia” value (12 mg single dose)?
The value was 0 n (%).

What about the “Drug Related TEAE by Preferred Term: Photophobia” value (12 mg single dose) of the same compound?
The value was 0 n (%).

And the “Drug Related TEAE by Preferred Term: Pollakiuria” value (12 mg single dose)?
Its value is 1 (1.1) n (%).

What about the “Drug Related TEAE by Preferred Term: Tachycardia” value (12 mg single dose) of the same compound?
The value was 0 n (%).

And the “Drug Related TEAE by Preferred Term: Urinary incontinence” value (12 mg single dose)?
Its value is 0 n (%).

And the “Subjects with at least one TEAE” value (12 mg single dose)?
Its value is 4 (44.4) n (%).

And the “Subjects with at least one treatment-related TEAE” value (12 mg single dose)?
Its value is 1 (11.1) n (%).

And the “TEAE by Highest Relationship: Not Related” value (12 mg single dose)?
The value was 3 (33.3) n (%).

What about the “TEAE by Highest Relationship: Related” value (12 mg single dose) of the same compound?
The value was 1 (11.1) n (%).

What about the “TEAE by Highest Severity: Mild” value (12 mg single dose) of the same compound?
Its value is 4 (44.4) n (%).

And the “TEAE by Highest Severity: Moderate” value (12 mg single dose)?
Its value is 0 n (%).

What about the “TEAE by Highest Severity: Severe” value (12 mg single dose) of the same compound?
Its value is 0 n (%).

What about the “TEAE by Preferred Term: Altered state of consciousness” value (12 mg single dose) of the same compound?
The value was 0 n (%).

And the “TEAE by Preferred Term: Constipation” value (12 mg single dose)?
The value was 1 (11.1) n (%).

What about the “TEAE by Preferred Term: Contusion” value (12 mg single dose) of the same compound?
Its value is 0 n (%).

What about the “TEAE by Preferred Term: Dizziness” value (12 mg single dose) of the same compound?
Its value is 0 n (%).

And the “TEAE by Preferred Term: Dizziness postural” value (12 mg single dose)?
Its value is 0 n (%).

And the “TEAE by Preferred Term: Dry skin” value (12 mg single dose)?
Its value is 0 n (%).

And the “TEAE by Preferred Term: Feeling jittery” value (12 mg single dose)?
The value was 0 n (%).

What about the “TEAE by Preferred Term: Headache” value (12 mg single dose) of the same compound?
The value was 0 n (%).

What about the “TEAE by Preferred Term: Initial insomnia” value (12 mg single dose) of the same compound?
The value was 0 n (%).

And the “TEAE by Preferred Term: Insomnia” value (12 mg single dose)?
The value was 0 n (%).

And the “TEAE by Preferred Term: Nasal dryness” value (12 mg single dose)?
Its value is 0 n (%).

What about the “TEAE by Preferred Term: Nausea” value (12 mg single dose) of the same compound?
The value was 1 (11.1) n (%).

And the “TEAE by Preferred Term: Photophobia” value (12 mg single dose)?
Its value is 0 n (%).

And the “TEAE by Preferred Term: Pollakiuria” value (12 mg single dose)?
The value was 1 (11.1) n (%).

What about the “TEAE by Preferred Term: Rash” value (12 mg single dose) of the same compound?
The value was 1 (11.1) n (%).

And the “TEAE by Preferred Term: Skin lesion” value (12 mg single dose)?
The value was 0 n (%).

And the “TEAE by Preferred Term: Tachycardia” value (12 mg single dose)?
The value was 0 n (%).

And the “TEAE by Preferred Term: Urinary incontinence” value (12 mg single dose)?
Its value is 0 n (%).

What about the “AE Leading to Study Drug Discontinuation” value (25 mg single dose) of the same compound?
The value was 0 n (%).
